Assays:
Assay type in all cases: in vivo, mouse
[1] = tested on: CD-1 mice, histamine-induced itch; test: Histamine-induced itch, Example 1a; details: oral dose 20 min before i.d. histamine, FIG. 8
Description: Methods. Experiments and procedures were performed under on-site IACUC standards and regulations. Female CD-1 mice (Charles River Hollister, Calif.) of approximately 10-12 weeks of age were used. Mice were housed under controlled light (6:00-18:00 h) and temperature (22° C.) with food and water available ad libitum. Histamine diphosphate (Sigma, St. Louis, Mo.) was dissolved in Dulbecco's phosphate buffered saline (PBS, pH=7.4) at various concentrations. H4R Inhibitor 1 was synthesized as described by Jablonowski et al. (J. Med. Chem. (2003), 46, 3957-3960), dissolved in a vehicle of 20% HPBCD/water at various concentrations, and administered per os (p.o.; by mouth) at a volume of 10 ml/kg. Antagonists of other histamine receptors, H1R (diphenhydramine and desloratadine), H2R (ranitidine) and H3R (1-[3-(4-piperidin-1-ylmethyl-phenoxy)-propyl]-piperidine, (“H3R Antagonist 1”; synthesized as described by Barbier et al., British J. Pharmacology (2004), 143: 649-661) were formulated similarly for use in experiments. In all experiments the hair was clipped over the rostral part of the back 24 hours prior to i.d. injection of pruritogen. Where noted, animals received an oral dose of histamine receptor antagonist 20 minutes prior to injection of pruritogen. Animals were injected i.d. with 20 μl of histamine. PBS was given as the vehicle control (“V). Immediately after intradermal injection, the animals were returned to an acrylic cage (approx. 15 cm dia×30 cm) to which they had been acclimated for at least 1 hour prior to the experiment, for observation of itch responses.

[2] = tested on: Balb/c mice, Compound 48/80-induced itch response; test: Compound 48/80-induced itch response (scratches in 20 min), background example; details: for inhibition of itch response: Compound 48/80, FIG. 2
Description: The role of histamine H4 receptor in itch responses was evaluated in mice.

[3] = tested on: mice, histamine-induced scratching; test: Histamine-induced scratching, background example; details: FIG. 4
Description: To evaluate the direct role of histamine in the pruritic response, histamine was injected in to the skin of mice and the amount of scratching measured.

[4] = tested on: mice, H4R agonist-induced scratching; test: Selective H4R agonist-induced scratching, background example; details: oral administration; FIG. 6
[5] = tested on: CD-1 mice, Compound 48/80-induced itch; test: Compound 48/80-induced itch, Example 1b; details: oral dose 20 min before i.d. Compound 48/80, FIG. 9
Description: Methods. Experiments and procedures were performed under on-site IACUC standards and regulations. Female CD-1 mice (Charles River Hollister, Calif.) of approximately 10-12 weeks of age were used. Mice were housed under controlled light (6:00-18:00 h) and temperature (22° C.) with food and water available ad libitum. Compound 48/80 (Sigma, St. Louis, Mo.) was dissolved in Dulbecco's phosphate buffered saline (PBS, pH=7.4) at 5 mg/ml. H4R Inhibitor 1 (synthesized as previously described) was dissolved in a vehicle of 20% HPBCD/water at various concentrations and administered p.o. at a volume of 10 ml/kg. […] In all experiments the mouse hair was clipped over the rostral part of the back 24 hours prior to i.d. injection of pruritogen. Where noted, animals received an oral dose of histamine receptor antagonist 20 min prior to injection of pruritogen. Animals were injected i.d. with 20 μl of Compound 48/80 or were given PBS as a vehicle control. Immediately after intradermal injection, the animals were returned to an acrylic cage (approx. 15 cm diameter×30 cm height) to which they had been acclimated for at least 1 h prior to the experiment, for observation of itch responses.

Compound	effect on histamine-induced itch [1]	inhibition of itch response ([2]; 3 mg/kg)	reduction of itch response ([2]; 30 mg/kg orally prior to Compound 48/80 injection, Balb/c mice)	inhibition of itch response ([2]; 100 mg/kg (maximally active))	inhibition of histamine-induced scratching ([3]; 3 mg/kg oral pre-treatment)	inhibition of histamine-induced scratching ([3]; 30 mg/kg oral pre-treatment (maximal))	effect on histamine-induced scratching ([3]; oral pre-treatment)	effect on H4R agonist-induced scratching [4]	effect on Compound 48/80-induced itch [5]
c1cc(OCCCN2CCCCC2)ccc1CN1CCCCC1 [H3R Antagonist 1, 1-[3-(4-piperidin-1-ylmethyl-phenoxy)-propyl]-piperidine]	neither the H2R antagonist ranitidine nor the H3R antagonist demonstrated significant inhibition	–	–	–	–	–	–	–	–
CN1CCN(C(=O)c2cc3cc(Cl)ccc3[nH]2)CC1 [H4R Inhibitor 1]	significant reduction of histamine-induced itch	12%	62.5%	68%	17%	75%	dose-dependently inhibited	inhibitable	significantly reduced the itch
Clc1ccc2c(c1)CCc1cccnc1C2=C1CCNCC1 [desloratadine]	no effect	–	–	–	–	–	–	–	–
CN(C)CCOC(c1ccccc1)c1ccccc1 [diphenhydramine, reference compound]	Small but significant inhibition	–	–	–	–	–	–	–	Small but significant inhibition

From US20090069343A1, “Combination Histamine H1R and H4R Antagonist Therapy for Treating Pruritus” (priority 2006, published 2009)
